Data published in PubChem BioAssay (NCI).
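Values below derive from 48-hour exposures of cells grown in 96-well plates, with endpoints linearly interpolated between the two concentrations bracketing the appropriate inhibition level. GI50: concentration for 50% inhibition of growth. TGI is the concentration that stops growth completely.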

Experiments:
Test in all cases: growth of human tumour cells (NCI), 48 h
SR leukemia = test system: SR leukemia
U251 CNS = test system: U251 CNS
KM12 colon = test system: KM12 colon
K-562 leukemia = test system: K-562 leukemia
SW-620 colon = test system: SW-620 colon
EKVX NSCLC = test system: EKVX NSCLC
HT29 colon = test system: HT29 colon
SNB-19 CNS = test system: SNB-19 CNS
BT-549 breast = test system: BT-549 breast
ACHN renal = test system: ACHN renal
CCRF-CEM leukemia = test system: CCRF-CEM leukemia
RPMI-8226 leukemia = test system: RPMI-8226 leukemia
CAKI-1 renal = test system: CAKI-1 renal
SK-MEL-28 melanoma = test system: SK-MEL-28 melanoma
MDA-MB-435 = test system: MDA-MB-435
DU-145 prostate = test system: DU-145 prostate
HL-60(TB) leukemia = test system: HL-60(TB) leukemia
HCC-2998 colon = test system: HCC-2998 colon
M14 melanoma = test system: M14 melanoma
UO-31 renal = test system: UO-31 renal
IGROV1 ovarian = test system: IGROV1 ovarian
T-47D breast = test system: T-47D breast
SK-MEL-2 melanoma = test system: SK-MEL-2 melanoma
NCI-H226 lung = test system: NCI-H226 lung
SF-295 CNS = test system: SF-295 CNS
SF-539 CNS = test system: SF-539 CNS
NCI-H460 lung = test system: NCI-H460 lung
RXF 393 renal = test system: RXF 393 renal
SN12C renal = test system: SN12C renal
MCF7 breast = test system: MCF7 breast
MOLT-4 leukemia = test system: MOLT-4 leukemia
OVCAR-8 ovarian = test system: OVCAR-8 ovarian
HOP-92 NSCLC = test system: HOP-92 NSCLC
NCI-H23 lung = test system: NCI-H23 lung
SK-OV-3 ovarian = test system: SK-OV-3 ovarian
SNB-75 CNS = test system: SNB-75 CNS
LOX IMVI melanoma = test system: LOX IMVI melanoma
UACC-257 melanoma = test system: UACC-257 melanoma
COLO 205 colon = test system: COLO 205 colon
MALME-3M melanoma = test system: MALME-3M melanoma
SF-268 CNS = test system: SF-268 CNS
OVCAR-3 ovarian = test system: OVCAR-3 ovarian
NCI-H522 lung = test system: NCI-H522 lung
MDA-MB-231 breast = test system: MDA-MB-231 breast
NCI/ADR-RES ovarian = test system: NCI/ADR-RES ovarian
UACC-62 melanoma = test system: UACC-62 melanoma
OVCAR-5 ovarian = test system: OVCAR-5 ovarian
A549 NSCLC = test system: A549 NSCLC
HCT-116 colon = test system: HCT-116 colon
OVCAR-4 ovarian = test system: OVCAR-4 ovarian
PC-3 prostate = test system: PC-3 prostate
HS 578T breast = test system: HS 578T breast
SK-MEL-5 melanoma = test system: SK-MEL-5 melanoma
HOP-62 NSCLC = test system: HOP-62 NSCLC
786-0 renal = test system: 786-0 renal
TK-10 renal = test system: TK-10 renal
A498 renal = test system: A498 renal
HCT-15 colon = test system: HCT-15 colon

Structure (SMILES): COc1cc(/C=C/C(=O)c2cc(OC)c(OC)c(OC)c2)ccc1Oc1nc(NCCO)nc(N2CCOCC2)n1
- GI50 (SR leukemia): 0.784 µM
- TGI (SR leukemia): 4.8 µM
- GI50 (U251 CNS): 1.62 µM
- TGI (U251 CNS): 3.12 µM
- GI50 (KM12 colon): 2.99 µM
- TGI (KM12 colon): 9.63 µM
- GI50 (K-562 leukemia): 1.91 µM
- TGI (K-562 leukemia): > 100 µM
- GI50 (SW-620 colon): 2.24 µM
- TGI (SW-620 colon): 5.78 µM
- GI50 (EKVX NSCLC): 2.81 µM
- TGI (EKVX NSCLC): 9.99 µM
- GI50 (HT29 colon): 2.83 µM
- TGI (HT29 colon): 8.44 µM
- GI50 (SNB-19 CNS): 2.31 µM
- TGI (SNB-19 CNS): 7.07 µM
- GI50 (BT-549 breast): 1.6 µM
- TGI (BT-549 breast): 3.32 µM
- GI50 (ACHN renal): 1.64 µM
- TGI (ACHN renal): 3.6 µM
- GI50 (CCRF-CEM leukemia): 2.38 µM
- TGI (CCRF-CEM leukemia): 23.5 µM
- GI50 (RPMI-8226 leukemia): 1.63 µM
- TGI (RPMI-8226 leukemia): 5.85 µM
- GI50 (CAKI-1 renal): 2.43 µM
- TGI (CAKI-1 renal): 9.16 µM
- GI50 (SK-MEL-28 melanoma): 1.92 µM
- TGI (SK-MEL-28 melanoma): 3.81 µM
- GI50 (MDA-MB-435): 3.1 µM
- TGI (MDA-MB-435): 11 µM
- GI50 (DU-145 prostate): 2.99 µM
- TGI (DU-145 prostate): 12.4 µM
- GI50 (HL-60(TB) leukemia): 1.54 µM
- TGI (HL-60(TB) leukemia): 6.8 µM
- GI50 (HCC-2998 colon): 2.23 µM
- TGI (HCC-2998 colon): 4.22 µM
- GI50 (M14 melanoma): 2.38 µM
- TGI (M14 melanoma): 7.32 µM
- GI50 (UO-31 renal): 1.66 µM
- TGI (UO-31 renal): 3.28 µM
- GI50 (IGROV1 ovarian): 2.45 µM
- TGI (IGROV1 ovarian): 6.17 µM
- GI50 (T-47D breast): 3.12 µM
- TGI (T-47D breast): 11.8 µM
- GI50 (SK-MEL-2 melanoma): 2.76 µM
- TGI (SK-MEL-2 melanoma): 8.19 µM
- GI50 (NCI-H226 lung): 3.69 µM
- TGI (NCI-H226 lung): 19.7 µM
- GI50 (SF-295 CNS): 2.9 µM
- TGI (SF-295 CNS): 10.6 µM
- GI50 (SF-539 CNS): 1.88 µM
- TGI (SF-539 CNS): 4.58 µM
- GI50 (NCI-H460 lung): 1.87 µM
- TGI (NCI-H460 lung): 4.03 µM
- GI50 (RXF 393 renal): 1.75 µM
- TGI (RXF 393 renal): 3.48 µM
- GI50 (SN12C renal): 1.79 µM
- TGI (SN12C renal): 5.72 µM
- GI50 (MCF7 breast): 1.72 µM
- TGI (MCF7 breast): 10.8 µM
- GI50 (MOLT-4 leukemia): 1.98 µM
- TGI (MOLT-4 leukemia): 8.02 µM
- GI50 (OVCAR-8 ovarian): 2.56 µM
- TGI (OVCAR-8 ovarian): 10.1 µM
- GI50 (HOP-92 NSCLC): 2.75 µM
- TGI (HOP-92 NSCLC): 9.99 µM
- GI50 (NCI-H23 lung): 1.99 µM
- TGI (NCI-H23 lung): 4.8 µM
- GI50 (SK-OV-3 ovarian): 2.44 µM
- TGI (SK-OV-3 ovarian): 6.34 µM
- GI50 (SNB-75 CNS): 1.79 µM
- TGI (SNB-75 CNS): 6.2 µM
- GI50 (LOX IMVI melanoma): 0.642 µM
- TGI (LOX IMVI melanoma): 2.04 µM
- GI50 (UACC-257 melanoma): 2.83 µM
- TGI (UACC-257 melanoma): 12.7 µM
- GI50 (COLO 205 colon): 2.1 µM
- TGI (COLO 205 colon): 4.39 µM
- GI50 (MALME-3M melanoma): 2.67 µM
- TGI (MALME-3M melanoma): 6.74 µM
- GI50 (SF-268 CNS): 3.02 µM
- TGI (SF-268 CNS): 12.9 µM
- GI50 (OVCAR-3 ovarian): 3.2 µM
- TGI (OVCAR-3 ovarian): 10.6 µM
- GI50 (NCI-H522 lung): 1.56 µM
- TGI (NCI-H522 lung): 3.17 µM
- GI50 (MDA-MB-231 breast): 2.86 µM
- TGI (MDA-MB-231 breast): 11.3 µM
- GI50 (NCI/ADR-RES ovarian): 4.72 µM
- TGI (NCI/ADR-RES ovarian): 23.4 µM
- GI50 (UACC-62 melanoma): 1.69 µM
- TGI (UACC-62 melanoma): 3.19 µM
- GI50 (OVCAR-5 ovarian): 3.14 µM
- TGI (OVCAR-5 ovarian): 10.6 µM
- GI50 (A549 NSCLC): 2.78 µM
- TGI (A549 NSCLC): 9.4 µM
- GI50 (HCT-116 colon): 1.53 µM
- TGI (HCT-116 colon): 3.23 µM
- GI50 (OVCAR-4 ovarian): 2.92 µM
- TGI (OVCAR-4 ovarian): 10.5 µM
- GI50 (PC-3 prostate): 3.11 µM
- TGI (PC-3 prostate): 13.5 µM
- GI50 (HS 578T breast): 3.62 µM
- TGI (HS 578T breast): 22.4 µM
- GI50 (SK-MEL-5 melanoma): 1.77 µM
- TGI (SK-MEL-5 melanoma): 3.31 µM
- GI50 (HOP-62 NSCLC): 2.35 µM
- TGI (HOP-62 NSCLC): 6.04 µM
- GI50 (786-0 renal): 3.46 µM
- TGI (786-0 renal): 13 µM
- GI50 (TK-10 renal): 3.12 µM
- TGI (TK-10 renal): 8.93 µM
- GI50 (A498 renal): 3.58 µM
- TGI (A498 renal): 13.3 µM
- GI50 (HCT-15 colon): 1.6 µM
- TGI (HCT-15 colon): 4.01 µM
